In patent publication US20250127689A1, “METHOD OF STIMULATING DENTIN FORMATION WITH HYDROXY-SUBSTITUTED AZOBENZENE MATERIALS” (The Regents of the University of Colorado, a body corporate, priority 2022, published 2025):

Assays:
[1] = tested on: exposed dental pulp of maxillary first molar; experiment: Pulp exposure (class I cavity) in maxillary first molar, microCT of maxilla six weeks after treatment; type: in vivo, C57BL/6J mice; conditions: mice, six weeks after dental procedure; longitudinal section, cured restorative removed before imaging
Procedure: (§1) In order to test this hypothesis, a class I cavity extending into the dentin and almost to the pulp was prepared on the occlusal surface of the maxillary first molar after anesthesia in five to six week old C57BL/6J mice. The cavity was prepared using a 0.3-0.5 millimeter diameter carbide bur. An endodontic hand file with a tip diameter of 0.06-0.10 millimeter was used to create a mechanical break in the thin dentin overlying the dental pulp, thereby creating a cavity that included exposed dentin and exposed pulp.
For the control group of mice, after hemostasis, a one-step, dual-cure, self-etching bonding agent (SCOTCHBOND™ Universal Adhesive; 3M ESPE, St. Paul, Minnesota, USA) was applied to exposed dentin according to the manufacturer's instructions and cured for 20-40 seconds using a dental curing light operated at 420-480 nanometers and 1200-2000 milliwatts/centimeter^2. ProRoot™ MTA (Mineral Trioxide Aggregate) root canal repair material (Dentsply Sirona, Tulsa Dental Specialties, Johnson City, Tennessee, USA) was prepared according to manufacturer's instructions by mixing powder and liquid components in equal proportions to form a dough. The dough was packed over the exposed pulp according to manufacturer's instructions. […]

[2] = tested on: exposed dental pulp of maxillary first molar; experiment: Pulp exposure (class I cavity) in maxillary first molar, H&E histology of sections four weeks after treatment; type: in vivo, C57BL/6J mice; conditions: mice
Procedure: as §1
For the control group of mice, after hemostasis, a one-step, dual-cure, self-etching bonding agent (SCOTCHBOND™ Universal Adhesive; 3M ESPE, St. Paul, Minnesota, USA) was applied to exposed dentin according to the manufacturer's instructions and cured for 20-40 seconds using a dental curing light operated at 420-480 nanometers and 1200-2000 milliwatts/centimeter^2. ProRoot™ MTA (Mineral Trioxide Aggregate) root canal repair material (Dentsply Sirona, Tulsa Dental Specialties, Johnson City, Tennessee, USA) was prepared according to manufacturer's instructions by mixing powder and liquid components in equal proportions to form a dough. The dough was packed over the exposed pulp according to manufacturer's instructions. The cavity was then sealed with FILTEK™ Supreme Ultra Universal Restorative (3M ESPE, St. Paul, Minnesota, USA), which was applied to the cured adhesive and the root canal repair material, then cured for 20-40 seconds using a dental curing light operated at 420-480 nanometers and 1200-2000 milliwatts/centimeter^2.
For the test group of mice, after hemostasis, a one-step, dual-cure, self-etching bonding agent (SCOTCHBOND™ Universal Adhesive; 3M ESPE, St. Paul, Minnesota, USA) was applied to exposed dentin according to the manufacturer's instructions and cured for 20-40 seconds using a dental curing light operated at 420-480 nanometers and 1200-2000 milliwatts/centimeter^2. Prior to being applied, the AHA solution was divided into two parts of equal volume to mix in the photoinitiators and the redox (self-cure) initiator components. […]

With `C=CC(=O)Oc1ccccc1N=Nc1ccccc1O` [AHA, 2-Acryloyloxy-2′-hydroxy-azobenzene] the “formation of a calcified dentinal bridge at the pulp exposure site (microCT)” value [1] was “pulp exposure site closed by a calcified dentinal bridge”, the “appearance of gingiva around the site of application (inflammation, dysplasia)” value [2] was “healthy without any signs of inflammation or dysplasia” and the “formation of dentinal bridge at the site of pulp exposure (H&E stained sections)” value ([2]; 2.5 to 12.5 micrograms AHA per restoration applied to exposed pulp, light-cured under FILTEK restorative) was “closed by formation of a dentinal bridge generated by reparative dentin formation”. For the same compound, the “state of dental pulp by microscopy (vitality, inflammation, dysplastic changes)” value ([2]; H&E sections) was “vital pulp without any evidence of chronic or acute inflammation or dysplastic changes”.
